Square brackets hold non-standard residues; d marks the D form. Peptide text beside a SMILES is read from it. * marks the point of attachment. 1Nal = N[C@@H](Cc1cccc2ccccc12)C(=O)O; Asu = N[C@@H](CCCCCC(=O)O)C(=O)O; β3hL = CC(C)C[C@H](N)CC(=O)O; CH2CH2COOH = O=C(O)CC*
Tests used:
HDAC6 = target: T1, HDAC6 (Homo sapiens, UniProt Q9UBN7)
T1 sequence (Q9UBN7 1-1215): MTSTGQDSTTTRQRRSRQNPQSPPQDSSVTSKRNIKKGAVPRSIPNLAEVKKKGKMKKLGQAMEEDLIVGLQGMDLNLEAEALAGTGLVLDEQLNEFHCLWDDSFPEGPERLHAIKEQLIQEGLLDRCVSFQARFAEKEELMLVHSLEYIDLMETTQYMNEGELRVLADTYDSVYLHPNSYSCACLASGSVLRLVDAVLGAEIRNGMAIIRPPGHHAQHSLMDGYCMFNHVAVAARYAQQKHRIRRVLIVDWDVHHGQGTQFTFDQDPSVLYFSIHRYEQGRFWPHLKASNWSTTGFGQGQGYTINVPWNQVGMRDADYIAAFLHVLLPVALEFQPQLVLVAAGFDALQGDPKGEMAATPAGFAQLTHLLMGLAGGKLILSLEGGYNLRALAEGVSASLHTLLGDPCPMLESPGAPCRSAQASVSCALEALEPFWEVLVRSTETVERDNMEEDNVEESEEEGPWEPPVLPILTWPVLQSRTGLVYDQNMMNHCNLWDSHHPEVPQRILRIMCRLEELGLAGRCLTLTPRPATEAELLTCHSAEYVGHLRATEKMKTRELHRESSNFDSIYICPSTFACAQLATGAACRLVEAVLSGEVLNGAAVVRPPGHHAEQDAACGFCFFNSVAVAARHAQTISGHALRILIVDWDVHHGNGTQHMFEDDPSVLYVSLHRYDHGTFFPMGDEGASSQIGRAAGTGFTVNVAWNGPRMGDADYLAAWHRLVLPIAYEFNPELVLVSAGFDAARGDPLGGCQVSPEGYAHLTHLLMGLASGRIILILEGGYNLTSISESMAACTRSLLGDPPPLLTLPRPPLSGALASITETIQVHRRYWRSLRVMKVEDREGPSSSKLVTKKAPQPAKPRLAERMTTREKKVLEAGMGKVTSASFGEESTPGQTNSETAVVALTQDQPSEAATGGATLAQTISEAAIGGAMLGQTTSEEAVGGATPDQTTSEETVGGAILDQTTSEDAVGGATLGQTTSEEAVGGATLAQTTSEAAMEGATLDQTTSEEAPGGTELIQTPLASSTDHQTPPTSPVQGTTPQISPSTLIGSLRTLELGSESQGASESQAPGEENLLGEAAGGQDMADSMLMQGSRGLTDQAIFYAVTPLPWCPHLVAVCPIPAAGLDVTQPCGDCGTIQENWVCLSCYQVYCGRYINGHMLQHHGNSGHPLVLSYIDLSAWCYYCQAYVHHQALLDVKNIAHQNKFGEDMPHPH

HDAC8 = target: T2, HDAC8 (Homo sapiens, UniProt Q9BY41); conditions: relative to 3a
T2 sequence (Q9BY41 1-377): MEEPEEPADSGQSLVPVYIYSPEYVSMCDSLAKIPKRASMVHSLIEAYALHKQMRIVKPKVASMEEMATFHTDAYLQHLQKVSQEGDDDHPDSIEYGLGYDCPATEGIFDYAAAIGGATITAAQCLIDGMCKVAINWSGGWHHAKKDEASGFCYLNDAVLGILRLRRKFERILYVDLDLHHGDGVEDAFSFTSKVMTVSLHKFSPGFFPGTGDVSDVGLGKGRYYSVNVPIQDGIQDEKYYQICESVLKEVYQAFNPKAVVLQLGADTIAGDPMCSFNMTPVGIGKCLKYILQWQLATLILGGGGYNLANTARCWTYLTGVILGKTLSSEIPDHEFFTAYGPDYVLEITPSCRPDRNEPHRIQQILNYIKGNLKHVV

HDAC1 = HDAC1 (Homo sapiens, UniProt Q13547); conditions: relative to 3a
Sequence of HDAC1 (Q13547 whole entry): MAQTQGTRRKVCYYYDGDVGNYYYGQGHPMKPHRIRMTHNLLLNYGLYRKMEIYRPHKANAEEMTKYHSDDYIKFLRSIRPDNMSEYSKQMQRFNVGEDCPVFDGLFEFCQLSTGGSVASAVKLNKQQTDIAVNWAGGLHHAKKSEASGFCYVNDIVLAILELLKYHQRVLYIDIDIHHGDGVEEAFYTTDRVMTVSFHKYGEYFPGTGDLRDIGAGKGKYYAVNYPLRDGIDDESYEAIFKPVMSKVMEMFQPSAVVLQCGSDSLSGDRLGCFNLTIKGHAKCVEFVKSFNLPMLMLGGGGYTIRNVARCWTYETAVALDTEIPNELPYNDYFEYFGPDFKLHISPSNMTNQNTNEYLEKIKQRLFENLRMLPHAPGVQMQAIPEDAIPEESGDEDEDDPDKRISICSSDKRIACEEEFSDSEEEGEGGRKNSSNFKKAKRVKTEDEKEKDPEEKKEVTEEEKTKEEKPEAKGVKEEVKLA

## CCC(=O)CCCCC[C@@H]1NC(=O)[C@H]2CCCCN2C(=O)[C@H]([C@@H](C)CC)NC(=O)[C@H](Cc2cn(OC)c3ccccc23)NC1=O [1a, apicidin, reference compound]
HDAC6
  HDAC6 inhibition (in words): did not inhibit HDAC6 in the concentration range tested

## CC(C)C[C@H]1CC(=O)N[C@@H](C)C(=O)N[C@@H](CSCCC(=O)O)C(=O)N[C@@H](Cc2c[nH]c3ccccc23)C(=O)N1 [4c] (cyclo(C(CH2CH2COOH)W[β3hL]A); ring closure inferred)
HDAC8
  decrease in potency against HDAC8, 3a vs. 4c: ~ 3 fold
HDAC1
  decrease in potency against HDAC1, 3a vs. 4c: ~ 40 fold

## CC(C)C[C@H]1CC(=O)N[C@@H](CCCNC(=N)N)C(=O)N[C@@H](CCCCCC(=O)O)C(=O)N[C@@H](Cc2cccc3ccccc23)C(=O)N1 [compound 17, c[Asu-Nal-β^3Leu-Arg]] (cyclo([Asu][1Nal][β3hL]R); ring closure inferred)
HDAC6
  fold more potent against HDAC6 compared to Ala–aa4 analog (8b): 3–4 fold

From paper PMC2788660 (Journal of medicinal chemistry, 2009)
